# Patent publication US20090048157A1, “USE OF ORGANIC COMPOUNDS” (priority 2004, published 2009)
# What was measured:
# Type in all cases: in vivo, human
# [1] = system: Serum CTX-I (bone resorption marker); assay: Serum CTX-I (CrossLaps) after single doses of oral or iv salmon calcitonin in male volunteers; conditions: eight male volunteers, oral and iv SCT
# Description: Serum CTX-I, or CrossLaps® (Nordic Bioscience Diagnostics A/S, cat. no. 4CRL4000) is an enzyme-immunoassay for quantitative assessment of bone resorption, and has been cleared by the FDA. It is based on two highly specific monoclonal antibodies against the amino acid sequence of EKAHD-β-GGR originating from the C-telopeptide of type I collagen. The aspartic acid residue (D) is β-isomerized. Standards, control, or unknown serum samples are pipetted into the appropriate microtitre wells coated with streptavidin, followed by application of a mixture of a biotinylated antibody and a peroxidase-conjugated antibody. Then, a complex between the CTX antigens, biotinylated antibody and peroxidase-conjugated antibody is generated, and this complex binds to the streptavidin surface via the biotinylated antibody. Following the one-step incubation at room temperature, the wells are emptied and washed. A chromogenic substrate is added and the colour reaction is stopped with sulfuric acid. Finally, the absorbance is measured.
# The effect of oral salmon calcitonin (SCT) on the serum levels of CTX-I is investigated by randomising study participants (eight male volunteers) to receive three. single doses of SCT, a verum intravenous infusion of SCT or placebo in a five-period cross-over design (the study is described in detail in Buchlin et al., J Bone Miner Res., (2002); 17:1478-1485).
# [2] = system: N-MID Osteocalcin (bone formation marker); assay: N-MID Osteocalcin ELISA response to oral SCT in postmenopausal women, clinical trial; conditions: 0.15-2.5 mg daily or 1.0 mg every other day, compared with placebo
# Description: The N-MID® Osteocalcin ELISA (Nordic Bioscience Diagnostics A/S, cat. no. 3OSC4000) is an enzyme innuosorbent assay for quantitative assessment of bone formation, and has been cleared by the FDA. It is based upon the application of two highly specific monoclonal antibodies (Mabs) against human osteocalcin. An antibody recognizing the midregion (amino acids 20-29) is used as the capture antibody and for detection a peroxidase conjugated antibody recognizing the N-terminal region (amino acids 10-16) is used. In addition to intact osteocalcin (amino acid 1-49) the N-terminal-Mid fragment (amino acids 1-43) is also detected. […] Finally, the absorbance is measured.
# (§1) The response of serum CTX-I and N-MID® Osteocalcin to SCT in postmenopausal women is examined in a multi-center, randomised, double-blind, placebo-controlled, dose-ranking clinical trial including 277 study participants aged 55-85 years (the study has been described in detail in Tank{acute over (0)} et al., J Bone Miner Res., in print). The study participants receives active treatment (daily doses of 0.15, 0.4, 1.0, or 2.5 mg or 1.0 mg every other day) or placebo for three months and serum CTX-I as well as N-MID® Osteocalcin are measured frequently during a 24-hours period before drug administration and after one and three months.
# [3] = system: Serum CTX-I (bone resorption marker); assay: Serum CTX-I response to oral SCT in postmenopausal women, clinical trial; conditions: after the first dose, 0.15, 0.4, 1.0 or 2.5 mg, dose-dependent, compared with placebo
# Description: Serum CTX-I, or CrossLaps® (Nordic Bioscience Diagnostics A/S, cat. no. 4CRL4000) is an enzyme-immunoassay for quantitative assessment of bone resorption, and has been cleared by the FDA. It is based on two highly specific monoclonal antibodies against the amino acid sequence of EKAHD-β-GGR originating from the C-telopeptide of type I collagen. The aspartic acid residue (D) is β-isomerized. Standards, control, or unknown serum samples are pipetted into the appropriate microtitre wells coated with streptavidin, followed by application of a mixture of a biotinylated antibody and a peroxidase-conjugated antibody. […] Finally, the absorbance is measured.
# as §1
substance,measurement,setting,value
salmon calcitonin [SCT],Time to nadir of serum CTX-I post-treatment,[1],2 to 4 h
same,Time to return of serum CTX-I to pre-treatment levels,[1],24 h
same,Serum CTX-I: inhibition of bone resorption,[1]; cross-over vs placebo,marked dose-dependent inhibition of bone resorption
same,Changes of N-MID Osteocalcin,[2],non-significant
same,Serum CTX-I decrease from baseline,[3],−60.8 to −81.8%
